This passage reports inhibition results from patent US7524853B2 (Solvay Pharmaceuticals B.V., priority 2003, dated 2009).

What is called inhibition is the drop in the measured response relative to a control, in per cent.

Holding throughout (assay type): cell-based
The target in assay [1] is T1, 17β-hydroxysteroid dehydrogenase type 3 (17β-HSD type 3) (Homo sapiens, UniProt P37058).
T1 construct: expressed in transfected cells; host or cells: MCF-7
T1 sequence (P37058 1-310): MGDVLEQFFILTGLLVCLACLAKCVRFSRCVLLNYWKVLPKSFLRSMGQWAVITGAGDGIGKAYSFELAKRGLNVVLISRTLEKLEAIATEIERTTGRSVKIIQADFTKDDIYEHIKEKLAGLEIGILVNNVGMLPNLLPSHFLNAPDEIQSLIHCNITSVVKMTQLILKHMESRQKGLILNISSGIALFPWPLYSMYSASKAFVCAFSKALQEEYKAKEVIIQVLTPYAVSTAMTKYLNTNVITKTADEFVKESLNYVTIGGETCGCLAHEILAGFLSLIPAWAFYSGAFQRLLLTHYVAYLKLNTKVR
Briefly: Inhibition of 17β-HSD type 3 in MCF-7 cells stably expressing the isoenzyme (tritium labeled androstenedione conversion, HPLC). Conditions: MCF7, MCF-7 cells expressing 17β-HSD type 3, 2 nM tritium labeled androstenedione; for inhibition at 1 µM: 1 μM test compound, read-out: % Inhibition HSD3 1 μM; for inhibition at 10 µM: 10 μM test compound, read-out: % Inhibition HSD3 10 μM. An excerpt: (§1) Biological Testing Materials and Methods 1. Inhibition of the 17β-hydroxysteroid dehydrocienase type 1, type 2 and type 3 enzyme
(§2) The compounds were screened in respect of 17β-HSD enzyme activity in vitro on established MCF-7 cell lines, each stably expressing one of the respective 17β-HSD isoenzymes. The interconversion of substrate by each isoenzyme and the 17β-HSD inhibiting activity of chemical compounds in these cell lines were detected by HPLC system.
(§3) Varying amounts of the test compounds were incubated in the growth medium of the 17β-HSD expressing cells together tritium labeled substrate (2 nM estrone for 17β-HSD type 1; 2 nM estradiol for 17β-HSD type 2; and 2 nM androstenedione for 17β-HSD type 3). The medium samples were removed after exact incubation time and the reaction is stopped by trichloroacetic acid (TCA). The samples were analyzed by HPLC-coupled flow scintillation analysis.
(§4) For each enzyme type, the HSD-inhibiting activity of an individual test compound was calculated by comparing the conversion of a control sample without any test compound (referred to as “Negative Control”) to the (reduced) conversion of the test sample containing the particular compound to be tested (referred to as “Test Sample”).
(§5) Two concentrations of each compound were used. The number of the compound refers to the numbers indicated in the Experimental Section.

The target of assay [2] is T2, 17β-hydroxysteroid dehydrogenase type 2 (17β-HSD type 2) (Homo sapiens, UniProt P37059).
T2 construct: expressed in transfected cells; host or cells: MCF-7
T2 sequence (P37059 1-387): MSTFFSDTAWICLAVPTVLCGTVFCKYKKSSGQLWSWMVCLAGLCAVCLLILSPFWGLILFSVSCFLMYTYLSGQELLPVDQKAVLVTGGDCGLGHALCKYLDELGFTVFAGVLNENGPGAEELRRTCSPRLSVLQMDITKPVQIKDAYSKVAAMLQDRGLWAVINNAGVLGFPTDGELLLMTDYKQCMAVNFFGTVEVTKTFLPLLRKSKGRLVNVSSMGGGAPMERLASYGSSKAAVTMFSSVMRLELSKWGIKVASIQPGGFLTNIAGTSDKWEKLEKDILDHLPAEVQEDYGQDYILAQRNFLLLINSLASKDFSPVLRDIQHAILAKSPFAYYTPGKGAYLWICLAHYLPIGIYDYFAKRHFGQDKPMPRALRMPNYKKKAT
Nature of the assay: Inhibition of 17β-HSD type 2 in MCF-7 cells stably expressing the isoenzyme (tritium labeled estradiol conversion, HPLC). Conditions: MCF7, MCF-7 cells expressing 17β-HSD type 2, 2 nM tritium labeled estradiol; for inhibition at 1 µM: 1 μM test compound, read-out: % Inhibition HSD2 1 μM; for inhibition at 10 µM: 10 μM test compound, read-out: % Inhibition HSD2 10 μM.
Text: as §1, §2, §3, §4, §5

The target of assay [3] is T3, 17β-hydroxysteroid dehydrogenase type 1 (17β-HSD type 1) (Homo sapiens, UniProt P14061).
T3 construct: expressed in transfected cells; host or cells: MCF-7
T3 sequence (P14061 1-328): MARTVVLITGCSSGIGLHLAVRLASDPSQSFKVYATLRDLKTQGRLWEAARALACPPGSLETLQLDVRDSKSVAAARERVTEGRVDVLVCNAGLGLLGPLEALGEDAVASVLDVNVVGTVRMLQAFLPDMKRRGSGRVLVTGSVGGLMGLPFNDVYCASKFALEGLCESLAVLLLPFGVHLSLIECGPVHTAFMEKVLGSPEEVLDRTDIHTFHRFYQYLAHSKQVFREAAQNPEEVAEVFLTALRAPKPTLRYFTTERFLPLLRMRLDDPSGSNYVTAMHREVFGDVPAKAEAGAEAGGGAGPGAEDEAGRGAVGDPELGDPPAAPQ
Nature of the assay: Inhibition of 17β-HSD type 1 in MCF-7 cells stably expressing the isoenzyme (tritium labeled estrone conversion, HPLC). Conditions: MCF7, MCF-7 cells expressing 17β-HSD type 1, 2 nM tritium labeled estrone; for inhibition at 1 µM: 1 μM test compound, read-out: % Inhibition HSD1 1 μM; for inhibition at 10 µM: 10 μM test compound, read-out: % Inhibition HSD1 10 μM.
Text: as §1, §2, §3, §4, §5

Take `O=C1c2sc3nc(-c4cccs4)n(Cc4ccccc4)c(=O)c3c2CCC1Br` (centres unmarked): the inhibition at 1 µM is 21.8% in assay [1], 32.8% in assay [2] and 28.5% in assay [3]. The inhibition at 10 µM was 25.6% in assay [1], 48.4% in assay [2] and 23.2% in assay [3].

In the case of `CCCCn1c(-c2cccs2)nc2sc3c(c2c1=O)CCCC3`, the inhibition at 1 µM in assay [1] stood at 3.1%; in assay [2], 18.5%; in assay [3], 14.9%. The inhibition at 10 µM in assay [1] was determined as 14.7%; in assay [2], 20.5%; in assay [3], 28.6%.

Regarding `COc1cc(-c2nc3sc4c(c3c(=O)n2Cc2ccccc2)CCCC4)cc(OC)c1OC` [No. 1, 3-benzyl-2-(3,4,5-trimethoxyphenyl)-5,6,7,8-tetrahydro-3H-benzo[4,5]thieno[2,3-d]pyrimidin-4-one], the inhibition at 1 µM in assay [1] was -8.8%; in assay [2], 7.3%; in assay [3], 0.8%. Moreover, the inhibition at 10 µM was determined as 6.3% in assay [1], 17.4% in assay [2] and 21.1% in assay [3].

On to `COc1cc(-c2nc3sc4c(c3c(=O)n2Cc2ccccc2)CCCC4=O)cc(OC)c1OC` [No. 2, 3-Benzyl-2-(3,4,5-trimethoxyphenyl)-6,7-dihydro-3H,5H-benzo[4,5]thieno[2,3-d]pyrimidine-4,8-dione], for which the values for the inhibition at 1 µM in assay [1], in assay [2] and in assay [3] were 11.7%, 1.5% and 17.3%, respectively. Besides, the inhibition at 10 µM in assay [1] worked out at 40.5%; in assay [2], 33.2%; in assay [3], 58.7%.

As to `COc1cc(-c2nc3sc4c(c3c(=O)n2Cc2ccccc2)CCC(C=O)=C4Cl)cc(OC)c1OC` [No. 3, 3-Benzyl-8-chloro-4-oxo-2-(3,4,5-trimethoxyphenyl)-3,4,5,6-tetrahydro-benzo[4,5]thieno[2,3-d]pyrimidine-7-carbaldehyde], the results for the inhibition at 1 µM in assay [1], in assay [2] and in assay [3] were -19.4%, -3.2% and 3.2%, respectively. The inhibition at 10 µM in assay [1] was 29.1%; in assay [2], 7.8%; in assay [3] it was 38.4%.

Consider `COc1cc(-c2nc3sc4c(c3c(=O)n2Cc2ccccc2)CCC(C=O)=C4Oc2ccccc2)cc(OC)c1OC` [No. 4, 3-Benzyl-4-oxo-8-phenoxy-2-(3,4,5-trimethoxyphenyl)-3,4,5,6-tetrahydro-benzo[4,5]thieno[2,3-d]pyrimidine-7-carbaldehyde], for which the figures for the inhibition at 1 µM in assay [1], in assay [2] and in assay [3] were -7.2%, -4.3% and 20.1%, respectively. Also, the inhibition at 10 µM in assay [1] was determined as 6.5%; in assay [2], 20.1%; in assay [3], 30.7%.

In the case of `COc1cc(-c2nc3sc4c(Oc5ccccc5)c(C=O)ccc4c3c(=O)n2Cc2ccccc2)cc(OC)c1OC` [No. 5, 3-Benzyl-4-oxo-8-phenoxy-2-(3,4,5-trimethoxyphenyl)-3,4-dihydro-benzo[4,5]thieno[2,3-d]pyrimidine-7-carbaldehyde], the inhibition at 1 µM in assay [1] is 9.4%; in assay [2], -0.9%; in assay [3] it was -1%. Besides, the inhibition at 10 µM in assay [1] came out at 9.1%; in assay [2], 17%; in assay [3], 26.1%.

With `CCSC1=C(C=O)CCc2c1sc1nc(-c3cc(OC)c(OC)c(OC)c3)n(Cc3ccccc3)c(=O)c21` [No. 6, 3-Benzyl-8-ethylsulfanyl-4-oxo-2-(3,4,5-trimethoxyphenyl)-3,4,5,6-tetrahydro-benzo[4,5]thieno[2,3-d]pyrimidine-7-carbaldehyde], the results for the inhibition at 1 µM in assay [1], in assay [2] and in assay [3] were 2.1%, 3.8% and 31.8%, respectively. Further, the inhibition at 10 µM in assay [1] is 47.1%; in assay [2] it was 29.7%; in assay [3], 44.2%.

For the compound `CCOC1=C(C=O)CCc2c1sc1nc(-c3cc(OC)c(OC)c(OC)c3)n(Cc3ccccc3)c(=O)c21` [No. 7, 3-Benzyl-8-ethoxy-4-oxo-2-(3,4,5-trimethoxyphenyl)-3,4,5,6-tetrahydro-benzo[4,5]thieno[2,3-d]pyrimidine-7-carbaldehyde], the inhibition at 1 µM in assay [1] is -17.6%; in assay [2] it was 8.2%; in assay [3], 12.5%. Also, the results for the inhibition at 10 µM in assay [1], in assay [2] and in assay [3] were 5.7%, 27% and 38.4%, respectively.

Take `COc1cc(-c2nc3sc4c(c3c(=O)n2Cc2ccccc2)CCC(C=O)=C4Sc2ccccc2)cc(OC)c1OC` [No. 8, 3-Benzyl-4-oxo-8-phenylsulfanyl-2-(3,4,5-trimethoxyphenyl)-3,4,5,6-tetrahydro-benzo[4,5]thieno[2,3-d]pyrimidine-7-carbaldehyde]: the inhibition at 1 µM was determined as 2.5% in assay [1], 4.9% in assay [2] and 30.8% in assay [3]. Moreover, the inhibition at 10 µM in assay [1] turned out to be 4.8%; in assay [2] it was 17.1%; in assay [3], 27.4%.

For the compound `COc1cc(-c2nc3sc4c(Sc5ccccc5)c(C=O)ccc4c3c(=O)n2Cc2ccccc2)cc(OC)c1OC` [No. 9, 3-Benzyl-4-oxo-8-phenylsulfanyl-2-(3,4,5-trimethoxyphenyl)-3,4-dihydro-benzo[4,5]thieno[2,3-d]pyrimidine-7-carbaldehyde], the values for the inhibition at 1 µM in assay [1], in assay [2] and in assay [3] were 2.7%, -2.6% and 31.9%, respectively. In addition, the inhibition at 10 µM in assay [1] was 1.4%; in assay [2] it was -8.9%; in assay [3], 29.9%.

`COc1cc(-c2nc3sc4c(c3c(=O)n2-c2ccccc2)CCCC4)cc(OC)c1OC` [No. 10, 3-Phenyl-2-(3,4,5-trimethoxyphenyl)-5,6,7,8-tetrahydro-3H-benzo[4,5]thieno[2,3-d]pyrimidin-4-one]: the inhibition at 1 µM in assay [1] was -4.4%; in assay [2], 18.1%; in assay [3] it was 12.7%. The results for the inhibition at 10 µM in assay [1], in assay [2] and in assay [3] were 10.9%, 23.7% and 35.1%, respectively.

On to `COc1cc(-c2nc3sc4ccccc4c3c(=O)n2Cc2ccccc2)c(Br)c(OC)c1OC` [No. 51, 3-benzyl-2-(2-bromo-3,4,5-trimethoxyphenyl)-3H-benzo[4,5]thieno[2,3-d]pyrimidin-4-one], for which, in assay [2], the inhibition at 1 µM worked out at 16.6% and the inhibition at 10 µM worked out at 30.7%. Further, in assay [3], the inhibition at 1 µM amounted to 9.9% and the inhibition at 10 µM was 9.1%.

`COc1cc(-c2nc3sc4c(O)cccc4c3c(=O)n2CC(C)C)cc(OC)c1OC` [No. 151, 8-Hydroxy-3-isobutyl-2-(3,4,5-trimethoxyphenyl)-3H-benzo[4,5]thieno[2,3-d]pyrimidin-4-one]: in assay [2], the inhibition at 1 µM was 14.6% and the inhibition at 10 µM stood at 22.1%. In assay [3], the inhibition at 1 µM came to 21.2% and the inhibition at 10 µM was determined as 52.7%.
